Assay results taken from US4824955A, “Selenium oxy chloride-pyridine or bipyridine complexes” (Nippon Kayaku Kabushiki Kaisha, priority 1985, dated 1989).
Several values for one entry are separate records, joined by “and”; a condition that tells them apart may be missing. Equal values may be shown once.

System: Enrlich carcinoma
Assay: Antineoplastic activity against Enrlich carcinoma (life prolongation rate)
Format: in vivo, 5-week-old ICR mice (male)
Set-up: response vs control in vivo: dose or concentration left out as unconfirmed
Conditions: Mus musculus, ip, 1440 h, 2.0 mg/kg/day, intraperitoneal, once a day, 7 days; read-out: Life prolongation rate (T/C %)
Protocol: Approximately 10^6 cells/0.2 ml of Enrlich carcinoma were inoculated into the abdominal cavity of each of the 5-week-old ICR mice (male) used for the test, and the test compounds were administered intraperitoneally to the mice of the treated group once a day for a period of 7 days, starting from the day after said inoculation. The mice of the control group was administered with a saline solution in the same way. Observation of the animals of both groups was continued for 60 days after the administration, and the life prolongation rate (T/C%, T/C×100) was determined from the average duration (days) of life of the mice of the treated group (T) and that of the mice of the control group (C).

SMILES | response vs control in vivo at 2 mg/kg
O=[Se](OC1CCCCC1Cl)OC1CCCCC1Cl (stereo not drawn) [Compound 3-6, Di-(2-chlorcyclohexyl)selenite] | 210%
CC(C)(Cl)CO[Se](=O)OCC(C)(C)Cl [Compound 3-2, Di-(2-chloro-2-methylpropyl)-selenite] | 178%
CC(Cl)C(C)O[Se](=O)OC(C)C(C)Cl (stereo not drawn) [Compound 3-1, Di-(2-chloro-1-methylpropyl)-selenite] | 177%
c1ccc(-c2cccnc2)cc1 [Compound 1-10, Selenium oxychloride-3-phenylpyridine (1:2) complex] | 251%
Cn1cnc2c1c(=O)n(Cc1ccccc1)c(=O)n2C [Compound 1-34, Selenium oxychloride-N--benzyltheobromine (1:2) complex] | 122%
CCc1ccncc1 [Compound 1-6, Selenium oxychloride-4-ethylpyridine (1:2) complex] | 173%
Fc1cccnc1 [Compound 1-12, Selenium oxychloride-3-fluoropyridine (1:2) complex] | 194%

Same assay, conditions: Mus musculus, ip, 1440 h, 8.0 mg/kg/day, intraperitoneal, once a day, 7 days; read-out: Life prolongation rate (T/C %)

SMILES | response vs control in vivo at 8 mg/kg
Cn1cncc1Br [Compound 1-28, Selenium oxychloride-1-methyl-5-bromoimidazole (1:2) complex] | 215%
O=[Se](OC1CCCCC1Cl)OC1CCCCC1Cl (stereo not drawn) [Compound 3-6, Di-(2-chlorcyclohexyl)selenite] | 253%
CC(C)(Cl)CO[Se](=O)OCC(C)(C)Cl [Compound 3-2, Di-(2-chloro-2-methylpropyl)-selenite] | 207%
CC(C)c1ccncc1 [Compound 1-7, Selenium oxychloride-4-isopropylpyridine (1:2) complex] | 256%
CC(Cl)C(C)O[Se](=O)OC(C)C(C)Cl (stereo not drawn) [Compound 3-1, Di-(2-chloro-1-methylpropyl)-selenite] | 193%
c1ccc(-c2cccnc2)cc1 [Compound 1-10, Selenium oxychloride-3-phenylpyridine (1:2) complex] | 203%
Cn1cnc2c1c(=O)n(Cc1ccccc1)c(=O)n2C [Compound 1-34, Selenium oxychloride-N--benzyltheobromine (1:2) complex] | 187%
CCc1ccncc1 [Compound 1-6, Selenium oxychloride-4-ethylpyridine (1:2) complex] | 244%
Fc1cccnc1 [Compound 1-12, Selenium oxychloride-3-fluoropyridine (1:2) complex] | 201%

Same assay, conditions: Mus musculus, ip, 1440 h, […], intraperitoneal, (Note 1) administered for 4 days; read-out: Life prolongation rate (T/C %)

SMILES | response vs control in vivo at 16 mg/kg
Cn1cncc1Br [Compound 1-28, Selenium oxychloride-1-methyl-5-bromoimidazole (1:2) complex] | 264%
CC(C)c1ccncc1 [Compound 1-7, Selenium oxychloride-4-isopropylpyridine (1:2) complex] | 201%
CCc1ccncc1 [Compound 1-6, Selenium oxychloride-4-ethylpyridine (1:2) complex] | 103%

Same assay, conditions: Mus musculus, ip, 1440 h, […], intraperitoneal, (Note 2) administered for 2 days; read-out: Life prolongation rate (T/C %)

SMILES | response vs control in vivo at 16 mg/kg
CC(C)(Cl)CO[Se](=O)OCC(C)(C)Cl [Compound 3-2, Di-(2-chloro-2-methylpropyl)-selenite] | 63%
Fc1cccnc1 [Compound 1-12, Selenium oxychloride-3-fluoropyridine (1:2) complex] | 140%

Same assay, conditions: Mus musculus, ip, 1440 h, […], intraperitoneal, (Note 3) administered for 3 days; read-out: Life prolongation rate (T/C %)

SMILES | response vs control in vivo at 16 mg/kg
O=[Se](OC1CCCCC1Cl)OC1CCCCC1Cl (stereo not drawn) [Compound 3-6, Di-(2-chlorcyclohexyl)selenite] | 95%

Same assay, conditions: Mus musculus, ip, 1440 h, […], intraperitoneal, once a day, 7 days; read-out: Life prolongation rate (T/C %)

SMILES | response vs control in vivo at 16 mg/kg
CC(Cl)C(C)O[Se](=O)OC(C)C(C)Cl (stereo not drawn) [Compound 3-1, Di-(2-chloro-1-methylpropyl)-selenite] | 90%
c1ccc(-c2cccnc2)cc1 [Compound 1-10, Selenium oxychloride-3-phenylpyridine (1:2) complex] | 199%
Cn1cnc2c1c(=O)n(Cc1ccccc1)c(=O)n2C [Compound 1-34, Selenium oxychloride-N--benzyltheobromine (1:2) complex] | 190%

Same assay, conditions: Mus musculus, ip, 1440 h, intraperitoneal, once a day, 7 days; read-out: Life prolongation rate (T/C %)

SMILES | response vs control in vivo
Cn1cncc1Br [Compound 1-28, Selenium oxychloride-1-methyl-5-bromoimidazole (1:2) complex] | 217%
O=[Se](OC1CCCCC1Cl)OC1CCCCC1Cl (stereo not drawn) [Compound 3-6, Di-(2-chlorcyclohexyl)selenite] | 216%
CC(C)(Cl)CO[Se](=O)OCC(C)(C)Cl [Compound 3-2, Di-(2-chloro-2-methylpropyl)-selenite] | 232%
CC(C)c1ccncc1 [Compound 1-7, Selenium oxychloride-4-isopropylpyridine (1:2) complex] | 222%
CC(Cl)C(C)O[Se](=O)OC(C)C(C)Cl (stereo not drawn) [Compound 3-1, Di-(2-chloro-1-methylpropyl)-selenite] | 179%
c1ccc(-c2cccnc2)cc1 [Compound 1-10, Selenium oxychloride-3-phenylpyridine (1:2) complex] | 192%
Cn1cnc2c1c(=O)n(Cc1ccccc1)c(=O)n2C [Compound 1-34, Selenium oxychloride-N--benzyltheobromine (1:2) complex] | 159%
CCc1ccncc1 [Compound 1-6, Selenium oxychloride-4-ethylpyridine (1:2) complex] | 209%
Fc1cccnc1 [Compound 1-12, Selenium oxychloride-3-fluoropyridine (1:2) complex] | 219%

Same assay, conditions: Mus musculus, ip, 1440 h, read-out: Life prolongation rate (T/C %)

SMILES | response vs control in vivo at 2 mg/kg | response vs control in vivo at 4 mg/kg | response vs control in vivo at 8 mg/kg | response vs control in vivo at 16 mg/kg
CN(C)c1ccncc1 [Compound 3-12, Selenium oxychloride-4-dimethylaminopyridine (1:2) complex] | 169% | 183% | 232% | 190%
Cc1ccccn1 [Compound 1-2, Selenium oxychloride-2-picoline (1:2) complex] | 176% | 169% | 194% | 75%
Clc1cccnc1 [Compound 1-13, Selenium oxychloride-3-chloropyridine (1:2) complex] | 142% | 172% | 158% | 84%

Same assay, conditions: mouse, in vivo

SMILES | Life prolongation rate (T/C %)
c1ccncc1 [Compound 1-1, Selenium oxybromide-pyridine (1:2) complex] | 165% and 173% and 181% and 130%

System: not listed separately
Assay: in vivo
Conditions: mouse, ip, LD50, intraperitoneal, once a day, 7 days, mice

SMILES | LD50
CN(C)c1ccncc1 [Compound 3-12, Selenium oxychloride-4-dimethylaminopyridine (1:2) complex] | > 16 mg/kg
Cn1cncc1Br [Compound 1-28, Selenium oxychloride-1-methyl-5-bromoimidazole (1:2) complex] | > 16 mg/kg
Cc1ccccn1 [Compound 1-2, Selenium oxychloride-2-picoline (1:2) complex] | 8 to 16 mg/kg
c1ccncc1 [Compound 1-1, Selenium oxybromide-pyridine (1:2) complex] | 8 to 16 mg/kg
O=[Se](OC1CCCCC1Cl)OC1CCCCC1Cl (stereo not drawn) [Compound 3-6, Di-(2-chlorcyclohexyl)selenite] | 8 to 16 mg/kg
CC(C)(Cl)CO[Se](=O)OCC(C)(C)Cl [Compound 3-2, Di-(2-chloro-2-methylpropyl)-selenite] | 8 to 16 mg/kg
Clc1cccnc1 [Compound 1-13, Selenium oxychloride-3-chloropyridine (1:2) complex] | 8 to 16 mg/kg
CC(C)c1ccncc1 [Compound 1-7, Selenium oxychloride-4-isopropylpyridine (1:2) complex] | 8 to 16 mg/kg
CC(Cl)C(C)O[Se](=O)OC(C)C(C)Cl (stereo not drawn) [Compound 3-1, Di-(2-chloro-1-methylpropyl)-selenite] | 8 to 16 mg/kg
c1ccc(-c2cccnc2)cc1 [Compound 1-10, Selenium oxychloride-3-phenylpyridine (1:2) complex] | > 16 mg/kg
Cn1cnc2c1c(=O)n(Cc1ccccc1)c(=O)n2C [Compound 1-34, Selenium oxychloride-N--benzyltheobromine (1:2) complex] | > 16 mg/kg
CCc1ccncc1 [Compound 1-6, Selenium oxychloride-4-ethylpyridine (1:2) complex] | 8 to 16 mg/kg
Fc1cccnc1 [Compound 1-12, Selenium oxychloride-3-fluoropyridine (1:2) complex] | 8 to 16 mg/kg
